In PubChem BioAssay (NCI):
Where “and” joins values, the source holds several entries; their conditions need not be identical. Equal values may be shown once.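 1) Cells in 96-well plates. 2) Compound, 48 h, 5 concentrations. 3) Linear interpolation between surrounding doses. 4) Unreached endpoint = highest concentration. GI50: concentration for 50% inhibition of growth. Definition used: TGI = concentration required for complete inhibition of growth.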

Assays:
Assay in all cases: NCI-60 cell line screen, 48 h
MOLT-4 leukemia = test system: MOLT-4 leukemia
RPMI-8226 leukemia = test system: RPMI-8226 leukemia
SK-OV-3 ovarian = test system: SK-OV-3 ovarian
NCI-H460 lung = test system: NCI-H460 lung
U251 CNS = test system: U251 CNS
SNB-19 CNS = test system: SNB-19 CNS
EKVX NSCLC = test system: EKVX NSCLC
HCT-15 colon = test system: HCT-15 colon
HCC-2998 colon = test system: HCC-2998 colon
MDA-MB-231 breast = test system: MDA-MB-231 breast

| Compound | TGI (MOLT-4 leukemia) [µM] | TGI (RPMI-8226 leukemia) | TGI (SK-OV-3 ovarian) | TGI (NCI-H460 lung) [µM] | TGI (U251 CNS) | TGI (SNB-19 CNS) | TGI (EKVX NSCLC) | TGI (HCT-15 colon) [µM] | TGI (HCC-2998 colon) [µM] | TGI (MDA-MB-231 breast) [µM] | GI50 (MOLT-4 leukemia) [µM] | GI50 (RPMI-8226 leukemia) [µM] | GI50 (SK-OV-3 ovarian) [µM] | GI50 (NCI-H460 lung) [µM] | GI50 (U251 CNS) [µM] | GI50 (SNB-19 CNS) [µM] | GI50 (EKVX NSCLC) [µM] | GI50 (HCT-15 colon) | GI50 (HCC-2998 colon) |
| --- | --- | --- | --- | --- | --- | --- | --- | --- | --- | --- | --- | --- | --- | --- | --- | --- | --- | --- | --- |
| C#CCNC(=O)NCCCCC(NC(=O)OCc1ccccc1)C(=O)OCc1ccccc1 (stereo not drawn) | 51.9 | 45.9 µM | > 100 µM | > 100 | > 100 µM | > 100 µM | > 100 µM | > 100 | > 72.5 |  |  |  |  |  |  |  |  |  |  |
| O=C(O)/C=C\C(=O)Nc1ccccn1 | > 100 | > 100 µM | > 100 µM | > 100 | > 100 µM | > 100 µM | > 100 µM | > 100 |  | > 100 |  |  |  |  |  |  |  |  |  |
| O=c1nc(-c2ccccc2)cc(CC(O)c2ccc(Cl)c(Cl)c2)[nH]1 (stereo not drawn) | > 100 |  | > 100 µM | > 100 | > 100 µM | > 100 µM | > 100 µM | > 100 | > 100 |  |  |  |  |  |  |  |  |  |  |
| COC(=O)C1=C(CS(=O)c2ccc([N+](=O)[O-])cc2[N+](=O)[O-])C2C=CC1C2 (stereo not drawn) | 59.8 | > 100 µM | > 100 µM | > 100 | 49.4 µM | > 100 µM | > 100 µM | 29.1 | 95.3 |  |  |  |  |  |  |  |  |  |  |
| CCc1cccc(C)c1N1C(=O)C(=O)C(c2nc3ccccc3o2)C(=O)C1=O | > 100 | > 100 µM | > 100 µM | > 100 | > 100 µM | > 100 µM | > 100 µM | > 100 | > 100 |  |  |  |  |  |  |  |  |  |  |
| N/C(=N\NS(=O)(=O)c1ccccc1)Oc1ccc(Br)cc1Br | > 100 | > 100 µM | > 100 µM | > 100 | > 100 µM | > 100 µM | > 100 µM | > 100 | > 100 |  |  |  |  |  |  |  |  |  |  |
| CC1(c2cc3c(cc2Br)OCO3)SCCCS1 | 96.2 | 91.6 µM | > 100 µM | > 100 | > 100 µM | > 100 µM | > 100 µM | > 100 | 77.3 |  |  |  |  |  |  |  |  |  |  |
| COC(=O)CCC12CCC(=O)C1[C@@H](C(=O)OC)C[C@H]2C(=O)OC (stereo partly drawn) | > 100 | > 100 µM | > 100 µM | > 100 | > 100 µM | > 100 µM | > 100 µM | > 100 | > 100 |  |  |  |  |  |  |  |  |  |  |
| Cc1ccc(Oc2ccccc2N)cc1 | > 100 | > 100 µM | > 100 µM | > 100 | 22.1 µM | > 100 µM | > 100 µM | > 100 | 34.2 |  |  |  |  |  |  |  |  |  |  |
| C[Si](C)(C)C(CCCCSc1ccccc1)(Sc1ccccc1)Sc1ccccc1 | > 100 | > 100 µM | > 100 µM | > 100 | > 100 µM | > 100 µM | > 100 µM | > 100 | > 100 |  |  |  |  |  |  |  |  |  |  |
| CCc1cccc(C)c1NC(=O)CCc1nnc2s/c(=C\c3cccc4ccccc34)c(=O)n12 | > 100 | > 100 µM | > 100 µM | > 100 | > 100 µM | > 100 µM |  | > 100 | > 100 |  |  |  |  |  |  |  |  |  |  |
| Cc1c(C(=O)/C=C/C=C/c2ccccc2)[n+](=O)c2ccccc2n1[O-] | > 100 |  | > 100 µM | 61.5 | > 100 µM | > 100 µM | > 100 µM | 36.9 | 36.7 |  |  |  |  |  |  |  |  |  |  |
| CC(C)(O)/C=C/C(=O)[C@](C)(O)[C@H]1[C@H](O)C[C@@]2(C)[C@@H]3CC=C4[C@@H](C[C@H](O)C(=O)C4(C)C)[C@]3(C)C(=O)C[C@]12C | 11.8 | 0.915 µM and 0.824 µM | 0.977 µM and 4.71 µM | 20.4 | 0.419 µM and 0.322 µM | 0.349 µM and 0.951 µM | 0.833 µM and 3.47 µM |  | 8.67 |  | 0.709 | 0.0666 | 0.566 | 0.0509 | 0.105 | 0.0476 | 0.477 | 0.0862 µM and 0.159 µM | 0.371 µM and 0.647 µM |
| [O-][N+]1(CC[N+]2([O-])CCCCC2)CCCCC1 | > 100 | > 100 µM | > 100 µM | > 100 | > 100 µM | > 100 µM | > 100 µM | > 100 |  | > 100 |  |  |  |  |  |  |  |  |  |
| Clc1cccc(N2CCN(CCCN3CCc4c([nH]c5ccccc45)C3c3cccnc3)CC2)c1 (stereo not drawn) | 39.8 |  | 32.2 µM | 23.7 | 23.9 µM | > 100 µM | 35.1 µM | 21.8 | 11.9 |  | 5.33 |  |  | 7.85 |  |  |  |  | 3.06 µM |
| COC(=O)C1C(=O)CC2CCCCC21 (stereo not drawn) | > 100 | > 100 µM | > 100 µM | > 100 | > 100 µM | > 100 µM |  | > 100 | > 100 |  |  |  |  |  |  |  |  |  |  |
| O=C(O)c1cc(=O)c2c([nH]c3ccccc32)s1 | > 100 | > 100 µM | > 100 µM | > 100 |  | > 100 µM | > 100 µM | > 100 | > 100 |  |  |  |  |  |  |  |  |  |  |
